Measured values published in PMC10892818, “An Antiherpesviral Host-Directed Strategy Based on CDK7 Covalently Binding Drugs: Target-Selective, Picomolar-Dose, Cross-Virus Reactivity” (Pharmaceutics, 2024).
Read-outs that look alike come from different tables or passages of the source.

Tests used:
[1] = system: HCMV UL97-C592G; set-up: method as in PMID 31940472; key: R-high, high-level drug resistance; R-int, intermediate-level drug resistance; R-low, low-level drug resistance; S, drug sensitivity; conditions: cited from earlier work
[2] = system: HCMV UL97-C603W; set-up: method as in PMID 31940472; key: R-high, high-level drug resistance; R-int, intermediate-level drug resistance; R-low, low-level drug resistance; S, drug sensitivity; conditions: cited from earlier work
[3] = system: HCMV UL97-M460I; set-up: method as in PMID 31940472; key: R-high, high-level drug resistance; R-int, intermediate-level drug resistance; R-low, low-level drug resistance; S, drug sensitivity; conditions: cited from earlier work
[4] = system: HCMV UL97-C480F; set-up: method as in PMID 31940472; key: R-high, high-level drug resistance; R-int, intermediate-level drug resistance; R-low, low-level drug resistance; S, drug sensitivity; conditions: cited from earlier work
[5] = system: HCMV UL97-H411Y; set-up: method as in PMID 31940472; key: R-high, high-level drug resistance; R-int, intermediate-level drug resistance; R-low, low-level drug resistance; S, drug sensitivity; conditions: cited from earlier work
[6] = system: HCMV UL97-T409M; set-up: method as in PMID 31940472; key: R-high, high-level drug resistance; R-int, intermediate-level drug resistance; R-low, low-level drug resistance; S, drug sensitivity; conditions: cited from earlier work
[7] = system: HCMV UL97-F342S; set-up: method as in PMID 31940472; key: R-high, high-level drug resistance; R-int, intermediate-level drug resistance; R-low, low-level drug resistance; S, drug sensitivity; conditions: (for F342Y); cited from earlier work
[8] = system: HCMV UL97-M460I; assay: HCMV reporter-based antiviral assay, drug-resistant mutant; assay type: cell-based, human cytomegalovirus; conditions: Human betaherpesvirus 5, AD169, read-out: Measured EC50 ref. drugs UL97-M460I
Experimental: (§1) For the infection experiments, stocks of the following recombinant, reporter protein-expressing viruses (GFP or YFP (i.e., green or yellow fluorescent protein, respectively)) were propagated (in permissive cells), determined in their infectious titers performing the respective reporter assays, stored by aliquots at −80 °C, and used for the assessment of antiviral drug activities: human cytomegalovirus HCMV AD169-GFP (HFFs); murine cytomegalovirus MCMV C3X-GFP (MEFs); guinea pig cytomegalovirus GPCMV v403-GFP (GPEFs); human herpesvirus type 6A HHV-6A U1102-GFP (J-Jhan); herpes simplex virus type 1 HSV-1 166v VP22-GFP (HFFs); varicella zoster virus VZV Oka-GFP (HFFs); Epstein-Barr virus EBV Akata-GFP (Akata-BX1-GFP carrier cells; kindly provided by Lindsey Hutt-Fletcher and Rona Scott, Dept. Microbiol. Immunol., LSUHSC Univ., Shreveport, LA, USA); and Kaposi’s sarcoma-associated herpesvirus KSHV rKSHV.219-GFP/RFP (in iSLK.219 carrier cells).
(§2) For HCMV AD169-GFP infection, the replication assay was based on a seeding of 225,000 HFFs or 13,500 HFFs in 12 well or 96 well plates, respectively, which were then inoculated with HCMV AD169-GFP [55] at an MOI of 0.25 GFP-FU/mL/7 d for a 90 min period of inoculum–cell adsorption, followed by a medium refreshment including the immediate addition of antiviral compounds. At 7 d p.i., the infected HFFs were either directly fixed with 10% formalin for 20 min at 4 °C (when used for infection in the 96 well format) or lysed and transferred to 96 well plates (when used for infection in the 12 well format) so that the reporter of viral replication could be quantified by GFP fluorometry using a Perkin Elmer Victor X4 Multimode Plate Reader (Perkin Elmer, Waltham, MA, USA).
(§3) Due to the fact that the HCMV-encoded protein kinase pUL97 represents a functional and structural ortholog of the host CDKs (vCDK/pUL97), the viral mutants of ORF-UL97 were assessed for sensitivity against CDK7 inhibitors.

[9] = system: HCMV UL97-C603W; assay: as above; assay type: cell-based, human cytomegalovirus; conditions: Human betaherpesvirus 5, read-out: Measured EC50 ref. drugs UL97-C603W
Experimental: as §1, §2, §3

[10] = system: HCMV UL97-F342S; assay: as above; assay type: cell-based, human cytomegalovirus; conditions: Human betaherpesvirus 5, read-out: Measured EC50 ref. drugs UL97-F342S
Experimental: as §1, §2, §3

[11] = system: HCMV UL97-H411Y; assay: as above; assay type: cell-based, human cytomegalovirus; conditions: Human betaherpesvirus 5, read-out: Measured EC50 ref. drugs UL97-H411Y
Experimental: as §1, §2, §3

[12] = system: HCMV UL97-C480F; assay: as above; assay type: cell-based, human cytomegalovirus; conditions: Human betaherpesvirus 5, read-out: Measured EC50 ref. drugs UL97-C480F
Experimental: as §1, §2, §3

[13] = system: HCMV UL97-C592G; assay: as above; assay type: cell-based, human cytomegalovirus; conditions: Human betaherpesvirus 5, read-out: Measured EC50 ref. drugs UL97-C592G
Experimental: as §1, §2, §3

[14] = system: HCMV UL97-H520Q; assay: as above; assay type: cell-based, human cytomegalovirus; conditions: Human betaherpesvirus 5, read-out: Measured EC50 ref. drugs UL97-H520Q
Experimental: as §1, §2, §3

[15] = system: HCMV UL97-L397R; assay: as above; assay type: cell-based, human cytomegalovirus; conditions: Human betaherpesvirus 5, read-out: Measured EC50 ref. drugs UL97-L397R
Experimental: as §1, §2, §3

[16] = system: HCMV UL97-H469V; assay: as above; assay type: cell-based, human cytomegalovirus; conditions: Human betaherpesvirus 5, read-out: Measured EC50 ref. drugs UL97-H469V
Experimental: as §1, §2, §3

[17] = system: HCMV UL97-T409M; assay: as above; assay type: cell-based, human cytomegalovirus; conditions: Human betaherpesvirus 5, read-out: Measured EC50 ref. drugs UL97-T409M
Experimental: as §1, §2, §3

[18] = system: HCMV UL97-H520Q; set-up: method as in PMID 31940472; key: R-high, high-level drug resistance; R-int, intermediate-level drug resistance; R-low, low-level drug resistance; S, drug sensitivity; conditions: cited from earlier work
[19] = Neutral Red uptake assay (NRA), uninfected HFFs; assay type: cell-based; conditions: human, read-out: CC50 (VZV-GFP system)
Experimental: The cytotoxic level of the compounds was determined by the use of an established quantitation of cell viability (i.e., Neutral Red uptake assay) performed after 3–7 d of compound incubation on uninfected cells (according to the respective duration of the antiviral reporter-based replication assay performed in parallel) as described earlier in [44].

[20] = Neutral Red uptake assay (NRA), iSLK.219 cells; assay type: cell-based; conditions: human, read-out: CC50 (KSHV-GFP/RFP system)
Experimental: (§4) The virus recombinants VZV Oka-GFP and rKSHV.219-GFP/RFP were used for the infection of HFFs (VZV) or were continuously passaged in iSLK.219 carrier cells (KSHV), respectively, and cell viability was determined by NRA performed with uninfected HFFs or uninduced iSLK.219 cells, respectively. (A,B) Schematic depiction of the assay systems performed in a 96 well plate format. […] For the VZV-GFP system, virus stock VZV Oka-GFP was applied as a cell-bound infectious inoculum. After a 90 min period of inoculum adsorption to the cell surfaces, antiviral compounds were added to the culture media at serial dilutions (DMSO served as a solvent control for drug treatment of infected cells, while mock-infected cells served as a negative control). For the KSHV-GFP/RFP system, iSLK.219 cell lytic replication of KSHV (RFP reporter signal) was induced by the addition of 0.05 or 0.5 µg/mL doxycycline (dox) to the culture media. Cultivated dox-induced iSLK.219 cells were treated with antiviral compounds added at serial dilutions (DMSO served as a positive infection solvent control, while dox-untreated mock cells served as a negative control). HFFs or iSLK.219 cells were harvested at 4 d p.i. or 1 d after treatment, respectively, fixed by a 10 min incubation with 10% formalin, washed with PBS, and used for quantitation of the GFP or RFP reporter signal by PicoMD counting (ImageXpress® Pico device, Molecular Devices LLC, San Jose, CA, USA), with data evaluation using CellReporterXpress® software (version 2.9.3.1183, Molecular Devices LLC) as described earlier in [63]. (C) The antiviral activity of the reference drugs was determined with the VZV-GFP system in the 96 well format. EC50 values refer to measurements in quadruplicate, and the mean values ± SD of two experimental replicates are given. (D) The antiviral activity of the reference drugs was determined with the KSHV-GFP/RFP system in the 96 well format. EC50 values refer to measurements in triplicate, and the mean values ± SD are given for each of the two depicted experimental replicates.

[21] = system: rKSHV.219-GFP/RFP; assay: KSHV-GFP/RFP reporter assay in iSLK.219 cells; assay type: cell-based, Kaposi’s sarcoma-associated herpesvirus
Source text: (§5) The virus recombinants VZV Oka-GFP and rKSHV.219-GFP/RFP were used for the infection of HFFs (virus stock VZV Oka-GFP applied as a cell-bound inoculum as described before) or were continuously passaged in iSLK.219 carrier cells, respectively (Figure 1). The conditions of the GFP/RFP-based assays were adapted to both the 96 well (Figure 1A,B) and 12 well formats, and details including the assessment of antiviral reference drugs are given (Figure 1C,D).
as §4

[22] = system: VZV Oka-GFP; assay: microbe, parasite or virus in culture; assay type: cell-based, varicella zoster virus; conditions: for EC50: Human alphaherpesvirus 3, 96 h
Source text: as §5, §4

## CC(C)Nc1nc2cc(Cl)c(Cl)cc2n1[C@H]1O[C@@H](CO)[C@H](O)[C@@H]1O [MBV, maribavir]
[1]
  Reported phenotype UL97-C592G: S
[2]
  Reported phenotype UL97-C603W: R-int
[3]
  Reported phenotype UL97-M460I: R-low
[4]
  Reported phenotype UL97-C480F: R-high
[5]
  Reported phenotype UL97-H411Y: R-high
[6]
  Reported phenotype UL97-T409M: R-high
[7]
  Reported phenotype UL97-F342S: R-int
[8]
  EC50: 10 nM
[9]
  EC50: 1530 nM
[10]
  EC50: 20300 nM
[11]
  EC50: 21000 nM
[12]
  EC50: > 30000 nM
[13]
  EC50: 770 nM
[14]
  EC50: 40 nM
[15]
  EC50: 63900 nM
[16]
  EC50: 620 nM
[17]
  EC50: > 30000 nM
[18]
  Reported phenotype UL97-H520Q: S

## Nc1nc2c(ncn2COCCO)c(=O)[nH]1 [aciclovir]
[19]
  CC50: > 100000 nM

## CCCCCCCCCCCCCCCCOCCCOP(=O)(O)CO[C@H](CO)Cn1ccc(N)nc1=O [brincidofovir]
[20]; marked 0.05 μg/mL dox
  CC50: 23800 ± 2900 nM
[20]; marked 0.5 μg/mL dox
  CC50: 28200 nM
[19]
  CC50: > 10000 nM
[21]; 0.05 μg/mL dox
  SI (KSHV-GFP/RFP system): 126
[21]; 0.5 μg/mL dox
  SI (KSHV-GFP/RFP system): 43
[21]; Human gammaherpesvirus 8, read-out: KSHV EC50, iSLK.219, 96 well, induced with 0.5 μg/mL dox
  EC50: 700 nM
[22]; 96 well format
  SI (VZV-GFP system): > 143
[22]; read-out: VZV EC50 (first experimental replicate)
  EC50: 70 ± 40 nM
[22]; read-out: VZV EC50 (second experimental replicate)
  EC50: 60 ± 30 nM
